Source: patent US20230053540A1, “TREATMENT OF LIVER INJURY” (Massachusetts Institute of Technology, priority 2019, published 2023)

Tested on: hepatocytes
Experiment: Seq-Well scRNA-Seq of hepatocytes after APAP overdose (signature scores, DEG vs untreated)
Type: in vivo, mouse
[1] = time point A24 vs untreated (UT)

CC(=O)Nc1ccc(O)cc1 [APAP, acetaminophen]
Psme4 pct.1 (time point A24): 0.58 | Ptprf pct.1 (time point A24): 0.588 | Raf13 pct.1 (time point A24): 0.612 | Ranbp2 pct.1 (time point A24): 0.484 | Rarres2 pct.1 (time point A24): 0.83 | Rpl13 pct.1 (time point A24): 0.306 | Rplp1 pct.1 (time point A24): 0.597 | Rps9 pct.1 (time point A24): 0.519 | Rps15 pct.1 (time point A24): 0.379 | Sbno1 pct.1 (time point A24): 0.36 | Sc4mol pct.1 (time point A24): 0.5 | Sco2 pct.1 (time point A24): 0.346 | Sec31a pct.1 (time point A24): 0.462 | Selenbp1 pct.1 (time point A24): 0.563 | Sh3bgrl pct.1 (time point A24): 0.512 | Slc38a10 pct.1 (time point A24): 0.449 | Slc39a14 pct.1 (time point A24): 0.495 | Srebf1 pct.1 (time point A24): 0.439 | Srp72 pct.1 (time point A24): 0.597 | Srpr pct.1 (time point A24): 0.532 | Stat3 pct.1 (time point A24): 0.459 | Stt3b pct.1 (time point A24): 0.485 | Surf4 pct.1 (time point A24): 0.656 | Tmem243 pct.1 (time point A24): 0.407 | Tob1 pct.1 (time point A24): 0.565 | Trib1 pct.1 (time point A24): 0.455 | Trip12 pct.1 (time point A24): 0.504 | Txndc5 pct.1 (time point A24): 0.48 | Txnrd1 pct.1 (time point A24): 0.564 | Uggt1 pct.1 (time point A24): 0.385 | Uqcr11 pct.1 (time point A24): 0.769 | Vkorc1 pct.1 (time point A24): 0.38 | Xiap pct.1 (time point A24): 0.504 | Zbtb20 pct.1 (time point A24): 0.566 | Adck3 avg_logFC [1]: −0.2825 | Arhgap5 avg_logFC [1]: 0.2952 | Arhgef12 avg_logFC [1]: 0.3047 | Arl5a avg_logFC [1]: 0.2648 | Atp1a1 avg_logFC [1]: 0.27 | Atp5e avg_logFC [1]: −0.3136 | Atp5f1 avg_logFC [1]: −0.2872 | Atp6v1f avg_logFC [1]: −0.2529 | Atp11c avg_logFC [1]: 0.2605 | Atp13a3 avg_logFC [1]: 0.3037 | Azin1 avg_logFC [1]: 0.2701 | Bnip3 avg_logFC [1]: −0.2928 | Brd2 avg_logFC [1]: 0.2664 | Bzw1 avg_logFC [1]: 0.2841 | Cald1 avg_logFC [1]: 0.2589 | Caprin1 avg_logFC [1]: 0.2628 | Ces3b avg_logFC [1]: −0.2867 | Copb2 avg_logFC [1]: 0.2839 | Copz1 avg_logFC [1]: 0.2577 | Cox7b avg_logFC [1]: −0.2674 | Cpne3 avg_logFC [1]: 0.258 | Ctnnb1 avg_logFC [1]: 0.2957 | Cyp4a14 avg_logFC [1]: −0.3729 | Cyp27a1 avg_logFC [1]: −0.2516 | Ddost avg_logFC [1]: 0.2504 | Dennd5b avg_logFC [1]: 0.2935 | Deptor avg_logFC [1]: 0.2606 | Dnajb9 avg_logFC [1]: 0.2586 | Dnajb11 avg_logFC [1]: 0.3154 | Eci1 avg_logFC [1]: −0.2764 | Edem1 avg_logFC [1]: 0.2869 | Ehhadh avg_logFC [1]: −0.2505 | Eif4b avg_logFC [1]: 0.256 | Ell2 avg_logFC [1]: 0.2881 | Eprs avg_logFC [1]: 0.3013 | Erbb2ip avg_logFC [1]: 0.2797 | Erp44 avg_logFC [1]: 0.2795 | Esd avg_logFC [1]: −0.2538 | Fam120a avg_logFC [1]: 0.28 | Fasn avg_logFC [1]: 0.2914 | Fcgrt avg_logFC [1]: −0.2693 | Gch1 avg_logFC [1]: −0.2825 | Gm23935 avg_logFC [1]: 0.7213 | Gm24245 avg_logFC [1]: 0.4242 | Golga4 avg_logFC [1]: 0.2718 | Gpam avg_logFC [1]: 0.2504 | Grlf1 avg_logFC [1]: 0.295 | Gstm3 avg_logFC [1]: −0.3186 | H6pd avg_logFC [1]: 0.2614 | Id3 avg_logFC [1]: −0.3511 | Ide avg_logFC [1]: 0.2517 | Iqgap2 avg_logFC [1]: 0.2547 | Ireb2 avg_logFC [1]: 0.2657 | Jak1 avg_logFC [1]: 0.2541 | Lasp1 avg_logFC [1]: 0.253 | Lgr4 avg_logFC [1]: 0.269 | Lpin2 avg_logFC [1]: 0.2776 | Macf1 avg_logFC [1]: 0.2617 | Magt1 avg_logFC [1]: 0.2633 | Man2a1 avg_logFC [1]: 0.2833 | Mbnl1 avg_logFC [1]: 0.2502 | Met avg_logFC [1]: 0.2883 | Mt1 avg_logFC [1]: −0.3482 | Mtss1 avg_logFC [1]: 0.2876 | Nadk2 avg_logFC [1]: 0.2579 | Narf avg_logFC [1]: 0.2629 | Ndufa6 avg_logFC [1]: −0.3068 | Ndufb6 avg_logFC [1]: −0.3064 | Ndufc2 avg_logFC [1]: −0.308 | Nop10 avg_logFC [1]: −0.2649 | Nr1i3 avg_logFC [1]: −0.2821 | Nrp1 avg_logFC [1]: 0.3341 | Osbp19 avg_logFC [1]: 0.2788 | Osbpl1a avg_logFC [1]: 0.2728 | Ostc avg_logFC [1]: 0.2658 | Pik3c2a avg_logFC [1]: 0.2594 | Plin5 avg_logFC [1]: −0.2778 | Prdx4 avg_logFC [1]: −0.3074 | Prdx5 avg_logFC [1]: −0.2609 | Prkaa2 avg_logFC [1]: 0.2636 | Prox1 avg_logFC [1]: 0.2663 | Proz avg_logFC [1]: 0.2632 | Psme4 avg_logFC [1]: 0.2626 | Ptprf avg_logFC [1]: 0.3071 | Raf13 avg_logFC [1]: 0.2553 | Ranbp2 avg_logFC [1]: 0.2659 | Rarres2 avg_logFC [1]: −0.2666 | Rpl13 avg_logFC [1]: −0.2997 | Rplp1 avg_logFC [1]: −0.2866 | Rps9 avg_logFC [1]: −0.314 | Rps15 avg_logFC [1]: −0.3561 | Sbno1 avg_logFC [1]: 0.2505 | Sc4mol avg_logFC [1]: −0.2735 | Sco2 avg_logFC [1]: −0.2929 | Sec31a avg_logFC [1]: 0.263 | Selenbp1 avg_logFC [1]: −0.28 | Sh3bgrl avg_logFC [1]: 0.2513 | Slc38a10 avg_logFC [1]: 0.2855 | Slc39a14 avg_logFC [1]: 0.323 | Srebf1 avg_logFC [1]: 0.2762 | Srp72 avg_logFC [1]: 0.3107 | Srpr avg_logFC [1]: 0.3052 | Stat3 avg_logFC [1]: 0.2974 | Stt3b avg_logFC [1]: 0.3194 | Surf4 avg_logFC [1]: 0.2586 | Tmem243 avg_logFC [1]: −0.2656 | Tob1 avg_logFC [1]: 0.3129 | Trib1 avg_logFC [1]: 0.2875 | Trip12 avg_logFC [1]: 0.3283 | Txndc5 avg_logFC [1]: 0.2901 | Uggt1 avg_logFC [1]: 0.2845 | Uqcr11 avg_logFC [1]: −0.2632 | Vkorc1 avg_logFC [1]: −0.2974 | Xiap avg_logFC [1]: 0.2602 | Zbtb20 avg_logFC [1]: 0.3791 | pct.1 Acsl1 (time point A48A96): 0.977 | pct.1 Aldh3a2 (time point A48A96): 0.592 | pct.1 Atp1a1 (time point A48A96): 0.701 | pct.1 Atp5d (time point A48A96): 0.866 | pct.1 C6 (time point A48A96): 0.653 | pct.1 Ces1e (time point A48A96): 0.791 | pct.1 Ctsd (time point A48A96): 0.831 | pct.1 Cyp4a12a (time point A48A96): 0.509 | pct.1 Ech1 (time point A48A96): 0.951 | pct.1 F5 (time point A48A96): 0.881 | pct.1 F9 (time point A48A96): 0.836 | pct.1 F12 (time point A48A96): 0.922 | pct.1 Fcgrt (time point A48A96): 0.806 | pct.1 Fn1 (time point A48A96): 0.932 | pct.1 Ftl1 (time point A48A96): 0.438 | pct.1 Gabarapl1 (time point A48A96): 0.917 | pct.1 Gclm (time point A48A96): 0.893 | pct.1 Glul (time point A48A96): 0.257 | pct.1 Gm4076 (time point A48A96): 0.047 | pct.1 Gm20594 (time point A48A96): 0.222 | pct.1 Gsta2 (time point A48A96): 0.583 | pct.1 Hadha (time point A48A96): 0.895 | pct.1 Hal (time point A48A96): 0.824 | pct.1 Hgfac (time point A48A96): 0.682 | pct.1 Hsd17b4 (time point A48A96): 0.943 | pct.1 Ifitm3 (time point A48A96): 0.823 | pct.1 Inmt (time point A48A96): 0.935 | pct.1 Lpgat1 (time point A48A96): 0.747 | pct.1 Lpin1 (time point A48A96): 0.515 | pct.1 Ndufb2 (time point A48A96): 0.814 | pct.1 Park7 (time point A48A96): 0.902 | pct.1 Pck1 (time point A48A96): 0.998 | pct.1 Pipox (time point A48A96): 0.774 | pct.1 Ppp2r5a (time point A48A96): 0.803 | pct.1 Ptms (time point A48A96): 0.857 | pct.1 Rarres1 (time point A48A96): 0.327 | pct.1 Rpl32 (time point A48A96): 0.766 | pct.1 Rpl41 (time point A48A96): 0.304 | pct.1 Sardh (time point A48A96): 0.939 | pct.1 Sdhd (time point A48A96): 0.837 | pct.1 Sds (time point A48A96): 0.671 | pct.1 Sec61a1 (time point A48A96): 0.7 | pct.1 Serpina12 (time point A48A96): 0.38 | pct.1 Sfxn1 (time point A48A96): 0.702 | pct.1 Slc2a2 (time point A48A96): 0.716 | pct.1 Slc37a4 (time point A48A96): 0.717 | pct.1 Tmem106b (time point A48A96): 0.787 | pct.1 Ubb (time point A48A96): 0.465 | pct.1 Ubxn4 (time point A48A96): 0.802 | pct.1 Upb1 (time point A48A96): 0.895 | pct.1 Usmg5 (time point A48A96): 0.677 | pct.1 mmu-mir-6236 (time point A48A96): 0.859 | pct.1 mt-Atp6 (time point A48A96): 0.326
